Entries after “also recorded” stand apart in the source; their conditions may differ.
What was measured:
[1] = system: intracranial luciferase-expressing FGFR3-TACC3-driven glioma xenografts; assay: Orthotopic (intracranial) FGFR3-TACC3-driven glioma xenografts, drug treatment, survival; type: in vivo, mouse; details: 50 mg/kg, oral, 20 days
Excerpt: Mice were monitored daily and sacrificed when neurological symptoms appeared.

[2] = system: recurrent GBM harboring FGFR3-TACC3 fusions; assay: Phase I trial of JNJ-42756493 in patients with recurrent GBM harboring FGFR3-TACC3 (MRI, RANO, volumetry)
Description: (A) Post-gadolinium T1 weighted images show the target lesion on the right parietal lobe. […] (B) Analysis of sum of product diameters (SPD) before and during the anti-FGFR treatment (RANO criteria). (C) Analysis of tumor volume (cm3) before and during the anti-FGFR treatment. […] (D) Perfusion images at baseline and after 20 days of anti-FGFR treatment. rCBV (relative cerebral blood volume). Post-gadolinium T1 weighted images with color overlay of rCBV are shown. […] (F) Analysis of sum of product diameters (SPD) before and during the anti-FGFR treatment.
MRI imaging and evaluation of clinical response to JNJ-42756493. Baseline and follow-up imaging assessments were performed on 1.5 Tesla MR imaging systems, including at least axial T1 weighted images before gadolinium injection, Axial or 3D FLAIR (Fluid-Attenuated Inversion-Recovery), dynamic susceptibility contrast MR perfusion (0.1 mmol/kg of gadobutrol), axial and 3D T1 weighted images after gadolinium injection. Tumor response was assessed according to the RANO criteria (33). Contrast-enhancing lesion volume was assessed with the help of a semi-automated volumetry tool (SegmentiX), based on shape-detection and thresholding, with control and manual correction of edges when necessary. Since exclusion of cystic or necrotic portions of the lesion may be affected by operator subjectivity, both were included for volumetric and axial measurements.
DSC (dynamic susceptibility contrast) perfusion datasets were processed with vendor's software suite (Neuroperfusion, Philips), including coregistration and rCBV (relative cerebral blood volume) parametric maps generation with 3 different algorithms (Gamma-variate fitting, Arterial Input Function based deconvolution and Model Free).

[3] = system: all members of the FGFR family; details: cited from earlier work
[4] = system: nonclinical models with FGFR aberrations; details: squamous NSCLC, gastric, breast, HCC, endometrial, bladder; cited from earlier work
[5] = system: mouse astrocytes expressing FGFR3-TACC3-KD or the empty vector; details: cells expressing KD mutant fusion or empty vector
Description: (§1) Cell culture and cell growth assay. GIC-1123 gliomaspheres were cultured in neurobasal medium (Invitrogen) supplemented with B27, N2 (Invitrogen), EGF and FGF2 (20 ng/ml, PeproTech). Mouse astrocytes Ink4A-Arf−/− were cultured in DMEM supplemented with 10% Fetal Bovine Serum. Cells were seeded at 1,000 cells/well in a 96-well plate and treated with JNJ-42756493. After 72 hours cell viability was assessed using the 3-(4,5-dimethythiazol-2-yl)-2,5-diphenyl tetrazolium bromide (MTT) assay. Data are mean±SEM of six replicates. Experiments were performed three times.

[6] = system: human glioma stem cells GIC-1123; details: GIC-1123, 72 hours, MTT
Description: as §1

[7] = system: mouse astrocytes expressing FGFR3-TACC3; details: mouse astrocytes expressing FGFR3-TACC3, 72 hours, MTT
Description: as §1

activated FGFR = details: cited from earlier work
[8] = system: GIC-1123 tumor xenografts; assay: Subcutaneous GIC-1123 xenografts treated with JNJ-42756493; details: 12 mg/kg, oral
Description: After tumor establishment (arrow) mice were treated with vehicle or JNJ-42756493 (12 mg/kg) for 14 days. Values are mean tumor volumes±SD, (n=9 mice per group). P-value of the slope calculated from the treatment starting point (arrow) is 0.04.
Subcutaneous xenografts and drug treatment. GIC-1123 cells (5×10^5) were injected subcutaneously in the flank of athymic nude (Nu/Nu) mice (Charles River Laboratories). Mice carrying ˜200 mm 3 subcutaneous tumors were randomized to receive 12 mg/kg JNJ-42756493 or DMSO in 1% Tween 80 by oral gavage. Tumor diameters were measured with caliper and tumor volumes estimated using the formula: 0.5×length×width 2. Data are mean±SD of nine mice in each group. Mice were sacrificed when tumors in the control group reached the maximal size allowed by the IACUC Committee at Columbia University.

[9] = system: Ink4A;Arf-/- astrocytes in immunodeficient mice; assay: Subcutaneous tumor xenograft formation by lentivirus-transduced Ink4A;Arf-/- astrocytes; type: in vivo, mouse
Excerpt: FIG. 3B are photomicrographs showing of immunofluoresence staining of tumors from mice injected with Ink4A; Arf−/− astrocytes expressing FGFR3-TACC3 showing positivity for glioma-specific (Nestin, Oig2 and GFAP) and proliferation markers (Ki67 and pHH3). Sub-cutaneous tumors were generated by Ink4A; Arf−/− astrocytes expressing FGFR-TACC fusions.
(§2) Subcutaneous xenografts and drug treatment. […] For experiments with FGFR inhibitors, mice carrying ˜200-300 mm 3 subcutaneous tumors derived from Ink4A; Arf−/− astrocytes were randomized to receive 50 mg/kg PD173074 in 0.05 M lactate buffer (pH 5) or an equal volume of lactate buffer by oral gavage. Treatment was administered for three cycles consisting of four consecutive days followed by two days of rest. […] Data are expressed as mean±SE.

Rat1 = assay: Soft agar colony assay, Rat1 cells; type: cell-based, rat; details: Rat1 cells transduced with the construct
Excerpt: FGFR1-TACC1 and FGFR3-TACC3 induce anchorage-independent growth in Rat1A fibroblasts. The number of soft agar colonies was scored from triplicate samples 14 days after plating. Representative microphotographs are shown.

[10] = system: Rat1A cells and Ink4A;Arf-/- astrocytes; assay: Quantitative analysis of chromosome segregation defects in mitoses; type: cell-based
Excerpt: Quantitative analysis of metaphase spreads for chromosome segregation defects in Ink4A; ARF−/− astrocytes expressing vector control or FGFR3-TACC3 (upper panel). Microscope imaging analysis of chromosome segregation defects in Ink4A; Arf−/− astrocytes expressing FGFR3-TACC3 or vector control. Representative images of cells with chromosome missegregation. Arrows point to chromosome misalignments, lagging chromosomes and chromosome bridges.
Confocal microscopy imaging. For immunofluorescence of fixed cells, images were recorded with a Z-optical spacing of 0.25 μm using a Nikon AIR MP and a 60×1.3 oil objective and analyzed using ImageJ software (National Institute of Health). For live-cell analyses, Rat1A cells infected with pLNCX-H2B retrovirus and transduced with lentiviral vector or FGFR3-TACC3 fusion were seeded in glass bottom dishes in phenol red free DMEM and followed by time-lapse microscopy using the Nikon AIR MP biostation at 37° C. and 5% CO2/95% air. Images with a Z-optical spacing of 1 μm were recorded every 4 min for 8 h. Images of unchallenged mitosis from early prophase until cytokinesis were processed using ImageJ software (National Institute of Health). The time-point of nuclear envelope breakdown (NEB) was defined as the first frame showing loss of smooth appearance of chromatin and anaphase was the first frame when chromosome movement towards the poles became apparent. […]

[11] = system: Rat1A cells expressing FGFR3-TACC3 fusion; assay: Growth of Rat1A cells expressing FGFR3-TACC3 after FGFR3 shRNA lentivirus (trypan blue exclusion); type: cell-based, rat; details: lentiviral shRNA
Description: At the left, parallel cultures of GSC-1123 cells were transduced in triplicate. Rat1A cells expressing FGFR3-TACC3 fusion were transduced with lentivirus expressing a non-targeting shRNA (Ctr) or shRNA sequences targeting FGFR3 (sh2, sh3, sh4). Five days after infection cells were plated at density of 2λ10^4 cells/well in triplicate and the number of trypan blue excluding cells was scored at the indicated times. […] Values are the means±standard deviation (n=3). At the right sided figure, GSC-1123 cells were transduced with lentivirus expressing a non-targeting shRNA (sh-Ctr) or lentivirus expressing sh-3 and sh-4 sequences targeting FGFR3. Western Blot analysis was performed on parallel cultures using the FGFR3 antibody to the detect FGFT3-TACC3 fusion protein. β-actin is shown as a control for loading.
Cloning and Lentiviral production. Lentiviral expression vectors, pLOC-GFP (Open Biosystems) and pTomo-shp53, were used to clone FGFR3, TACC3, FGFR3-TACC3, FGFR3-TACC3-K508M, and FGFR1-TACC1. pTomo-shp53 was a gift of Inder Verma and Dinorah Friedman-Morvinski (Salk Institute, San Diego). The FGFR3-TACC3-K508M mutant was generated using the Phusion Site Direct Mutagenesis kit (NEB, USA). MISSION shRNAs clones (pLK0.1 lentiviral expression vectors) against FGFR3 were purchased from Sigma. The hairpin sequences targeting the FGFR3 gene are—

[12] = system: glioma xenografts of FGFR3-TACC3 transformed astrocytes; assay: Subcutaneous glioma xenografts of FGFR3-TACC3 transformed astrocytes, drug treatment; type: in vivo, mouse; details: 50 mg/kg, oral gavage
Description: as §2

FGFR3-TACC3 = target: T1, FGFR3-TACC3 (Homo sapiens, UniProt P22607); assay: Western blot of constitutive phosphorylation of FGFR3-TACC3 and FRS2 in Ink4A;Arf-/- astrocytes; type: cell-based, mouse; details: 100 nM PD173074, Ink4A;Arf-/- astrocytes
T1 construct: a protein of 1,048 amino acids resulting from the fusion of a FGFR3 amino-terminal portion of residues 1-758; expressed in transfected cells; host or cells: Ink4A;Arf-/- mouse astrocytes, lentiviral transduction (pLOC-GFP / pTomo vectors)
Description: Ink4A; Arf−/− astrocytes transduced with empty lentivirus or a lentivirus expressing FGFR3-TACC3 or FGFR3-TACC3-K508M were left untreated (0) or treated with 100 nM of the FGFR inhibitor PD173074 for the indicated times. Phospho-proteins and total proteins were analyzed by Western blot using the indicated antibodies.

Rat1A cells = assay: Karyotype analysis (chromosome counts, aneuploidy) of Rat1A cells; type: cell-based, rat; details: five days
Description: Distribution of chromosome counts of cells arrested in mitosis and analyzed for karyotypes using DAPI. Chromosomes were counted in 100 metaphase cells for each condition to determine the ploidy and the diversity of chromosome counts within the cell population. FGFR3-TACC3 fusion induces aneuploidy.
The upper panel is a karyotype analysis of Rat1A cells transduced with control or FGFR3-TACC3 lentivirus and treated with vehicle (DMSO) or PD173470 (100 nM) for five days.
(§3) Karyotype analysis. Cultured cells were colcemid (20 ng/ml) treated for 90 minutes before harvesting for karyotopic analysis as detailed in Extended Experimental procedures. At least one hundred cells in metaphase were examined for chromosome count. PMSCS was scored in cells where a majority of the sister chromosomes were no longer associated. Two-tailed unpaired t-tests with Welch's correction were performed for comparison of means analysis.
Karyotypic Analysis. The colcemid treated cells were trypsinized, centrifuged for 7 minutes at 200×g, and the cell pellet re-suspended in warmed hypotonic solution and incubated at 37° C. for 13 minutes. The swollen cells were then centrifuged and the pellet re-suspended in 8 ml of Carnoy's fixative (3:1 methanol:glacial acetic acid). […] Slides were stained with DAPI and metaphases were analyzed under a fluorescent microscope.

[13] = system: Rat1A cells and Ink4A;Arf-/- astrocytes; assay: Premature sister chromatid separation (PMSCS) in metaphase spreads; type: cell-based; details: cells expressing FGFR3-TACC3
Excerpt: Correction of premature sister chromatid separation (PMSCS) by PD173470 in cells expressing FGFR3-TACC3. Panels show representative metaphase spreads. DNA was stained by DAPI.
Left, panels show representative metaphase spreads. Right, quantitative analysis of metaphases with loss of sister chromatid cohesion. The number of mitosis with PMSCS in Ink4A; Arf−/− astrocytes was scored in at least 100 methaphases for each condition in three independent experiments. The number of mitosis with PMSCS was scored in triplicate samples of Rat1A cells. FIG. 13D is a graph showing nocodazole was added for the indicated durations to Rat1A-H2B-GFP cells transduced with the specified lentiviruses. The mitotic index at each time point was determined by quantitating the H2B-GFP-positive cells in mitosis at each time point. Data are presented as average and standard deviation (n=3).
as §3

## COc1cc(CCc2cc(NC(=O)c3ccc(N4C[C@@H](C)N[C@@H](C)C4)cc3)n[nH]2)cc(OC)c1 [AZD4547]
[1]
  survival of mice with intracranial FGFR3-TACC3 glioma: markedly prolonged survival

## COc1cc(OC)cc(N(CCNC(C)C)c2ccc3ncc(-c4cnn(C)c4)nc3c2)c1 [JNJ-42756493]
[2]; Patient 1
  change of the enhancing parenchyma of the tumor mass: −44%
  duration of stabilization: 115 days
  toxicity observed during treatment: grade I hyperphosphatemia, asthenia, dysgueusia, dry mouth, keratitis, and grade II nail changes
[2]; Patient 1, 12 mg/day, 7 days on/7 days off
  tumor response on MRI (RANO sum of product diameters, volumetry): stabilization of the tumor; also recorded: stable disease; also recorded: disease stabilization
[2]; Patient 1, MR perfusion
  extent of tumor vascularity (rCBV): marked reduction
[2]; Patient 1, after 3 weeks
  clinical status: marked clinical improvement
[2]; Patient 2
  time to best response: 104 days
  time to disease progression after start of anti-FGFR: 134 days
  toxicity observed during treatment: Grade I hyperphosphatemia, nail changes, and mucositis
  tumor response category: minor response
[2]; Patient 2, after 4 weeks
  clinical status: clinical improvement
[2]; Patient 2, best response
  reduction of tumor size according to the RANO criteria: 22%
  tumor reduction according to volumetry: 28%
[3]
  IC50 values for all members of the FGFR family: low nanomolar range
[4]
  antitumor activities in nonclinical models with FGFR aberrations: potent antitumor activities
[5]
  sensitivity to FGFR inhibition: but not cells expressing the KD mutant fusion or the empty vector
[6]
  IC50: 1.55 nM
[7]
  IC50: 3.03 nM
Activated FGFR
  concentration inhibiting tyrosine phosphorylation of activated FGFR: nanomolar concentrations
[8]
  growth of GIC-1123 tumor xenografts: potent growth inhibition
[8]; after two weeks
  tumor regression of GIC-1123 xenografts: statistically significant tumor regression

## FGFR1-TACC1: fusion protein in which the TK domain of FGFR1 is fused upstream of the TACC domain of TACC1 (SEQ ID NO: 150)
[9]; Ink4A;Arf-/- astrocytes, immunodeficient mice
  mice with tumors after subcutaneous injection of astrocytes expressing the fusion protein: 100%
[9]; Ink4Arf-/- astrocytes expressing the construct
  Subcutaneous tumor xenografts (tumors formed/injections): 8/8
Rat1
  soft agar colonies: 225.3 ± 10.0
[10]
  increase of chromosomal segregation errors versus control cells: three to five fold increase

## sh-3: MISSION shRNA hairpin targeting the FGFR3 gene, SEQ ID NO: 183 (guide GTTCCACTGCAAGGTGTACAG; the letters are possibly those of the target site)
[11]
  growth of cells ectopically expressing FGFR3-TACC3 after FGFR3 silencing: reverted the growth rate

## CCN(CC)CCCCNc1ncc2cc(-c3cc(OC)cc(OC)c3)c(NC(=O)NC(C)(C)C)nc2n1 [PD173074]
[12]
  tumor growth of FGFR3-TACC3 glioma subcutaneous xenografts: potent growth inhibition
FGFR3-TACC3
  constitutive phosphorylation of the TK domain of FGFR3-TACC3 and of FRS2: abolished
Rat1A cells; Rat1A expressing FGFR3-TACC3, 100 nM
  distribution of chromosome counts: restored the narrow distribution of chromosome counts
Rat1A cells; Rat1A, 100 nM
  rescue of the aneuploidy caused by FGFR3-TACC3: over 80%
[13]
  cohesion defect (premature sister chromatid separation): largely corrected
[13]; listed as PD173470
  cohesion defect (premature sister chromatid separation): Correction

## sh-4: MISSION shRNA hairpin targeting the FGFR3 gene, SEQ ID NO: 184 (guide GCACAACCTCGACTACTACAA; the letters are possibly those of the target site)
[11]
  growth of cells ectopically expressing FGFR3-TACC3 after FGFR3 silencing: reverted the growth rate

— patent publication US12006503B2, “Fusion proteins and methods thereof” (The Trustees of Columbia University in the City of New York, priority 2012, dated 2024)
